Reference: patent US7776900B2, “Benzimidazole derivatives and their use for modulating the GABAAreceptor complex” (Neurosearch A/S, priority 2005, dated 2010)
Where a name gives a salt, the structure may show the parent alone.

What was measured:
[1] = target: GABAA receptor complex (benzodiazepine modulatory unit); experiment: In vitro inhibition of 3H-flunitrazepam (3H-FNM) binding; set-up: species or system rat; settings: inhibition of specific binding of 3H-FNM (1 nM), cerebral cortex membranes from male Wistar rats, 40 min at 2° C.
Protocol: In vitro Inhibition of ^3H-flunitrazepam (^3H-FNM) Binding
The GABA recognition site and the benzodiazepine modulatory unit can selectively be labelled with ^3H-flunitrazepam.
Preparations are performed at 0-4° C. unless otherwise indicated. Cerebral cortex from male Wistar rats (150-200 g) is homogenised for 5-10 sec in 20 ml Tris-HCl (30 mM, pH 7.4) using an Ultra-Turrax homogeniser. The suspension is centrifuged at 27,000×g for 15 min and the pellet is washed three times with buffer (centrifuged at 27,000×g for 10 min). The washed pellet is homogenized in 20 ml of buffer and incubated on a water bath (37° C.) for 30 min to remove endogenous GABA and then centrifuged for 10 min at 27,000×g. The pellet is then homogenized in buffer and centrifuged for 10 min at 27,000×g. The final pellet is resuspended in 30 ml buffer and the preparation is frozen and stored at −20° C.
The membrane preparation is thawed and centrifuged at 2° C. for 10 min at 27,000×g. The pellet is washed twice with 20 ml 50 mM Tris-citrate, pH 7.1 using an Ultra-Turrax homogeniser and centrifuged for 10 min at 27,000×g. The final pellet is resuspended in 50 mM Tris-citrate, pH 7.1 (500 ml buffer per g of original tissue), and then used for binding assays. Aliquots of 0.5 ml tissue are added to 25 μl of test solution and 25 μl of ^3H-FNM (1 nM, final concentration), mixed and incubated for 40 min at 2° C. Non-specific binding is determined using Clonazepam (1 μM, final concentration). After incubation the samples are added 5 ml of ice-cold buffer and poured directly onto Whatman GF/C glass fibre filters under suction and immediately washed with 5 ml ice-cold buffer. The amount of radioactivity on the filters is determined by conventional liquid scintillation counting. Specific binding is total binding minus non-specific binding.
25-75% inhibition of specific binding must be obtained, before calculation of an IC50.
The test value will be given as IC50 (the concentration (μM) of the test substance which inhibits the specific binding of ^3H-FNM by 50%). […]

| melting point [°C] | Compound | IC50 [1] [nM] |
| --- | --- | --- |
| 192 to 194 | c1ccc(COCc2cccc(-n3cnc4cc(CN5CCCC5)ccc43)c2)nc1 | – |
| 154 to 154.8 | ON=Cc1ccc2c(c1)ncn2-c1cccc(COCc2ccccn2)c1 | – |
| 165 to 167 | ON=Cc1ccc2c(c1)ncn2-c1cccc(CNCc2ccc(F)c(F)c2)c1 | – |
| 99.8 to 101.2 | CCOC(=O)c1ccc2c(c1)ncn2-c1cccc(COCc2ccccn2)c1 | – |
| – | CC(=NO)c1ccc2c(c1)ncn2-c1cccc(COCc2ncnn2C)c1 [Compound 22a, 1-{1-[3-(2-Methyl-2H-[1,2,4]triazol-3-ylmethoxymethyl)-phenyl]-1H-benzoimidazol-5-yl}-ethanone oxime] | 2.1 |
| – | CC(O)c1ccc2c(c1)ncn2-c1cccc(COCc2ncnn2C)c1 (centres unmarked) [Compound 23, 1{-1-[3-(2-Methyl-2H-[1,2,4]triazol-3-ylmethoxymethyl)-phenyl]-1H-benzoimidazol-5-yl}-ethanol] | 22 |
| – | CCOC(C)c1ccc2c(c1)ncn2-c1cccc(COCc2ncnn2C)c1 (centres unmarked) [Compound 24b, 5-(1-Ethoxy-ethyl)-1-[3-(2-methyl-2H-[1,2,4]triazol-3-ylmethoxymethyl)-phenyl]-1H-benzoimidazole] | 9.2 |

| Compound | melting point [°C] | IC50 [1] [nM] |
| --- | --- | --- |
| CC(=NO)c1ccc2c(c1)ncn2-c1cccc(COCc2ncnn2C)c1 (as salt: chloride) [Compound 22a, 1-{1-[3-(2-Methyl-2H-[1,2,4]triazol-3-ylmethoxymethyl)-phenyl]-1H-benzoimidazol-5-yl}-ethanone oxime] | 178.8 to 180.4 | – |
